Measurements reported in PubChem BioAssay AID179 (DTP/NCI, 2004).
“And” between values parts separate entries of the source, which are not always exact repeats. Equal values may be shown once. The source made the active and inactive calls.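 The calls were made as follows: active = compounds giving half or more protection of infected cells from virus-caused growth loss, again on retest; inactive = the rest.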 Where a SMILES comes first, the peptide text is derived from it. The star is where a group is joined. Myristoyl = CCCCCCCCCCCCCC(=O)*

System: CEM cells HIV-1 protection, formazan growth assay
Assay: NCI AIDS Antiviral Assay
Details: for IC50: measured here: growth of uninfected CEM cells
Outline: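 Five concentrations of each compound were applied to infected and uninfected human CEM cells. Protection from HIV-1 was judged from growth measured with a soluble formazan assay.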

Structure (SMILES) | EC50 | IC50 | outcome
NS(=O)(=O)c1ccc(NC(=O)Nc2ccc(F)cc2)cc1 | > 200 µM | 74.1 µM | –
ClC/C=C\C[N+]12CN3CN(CN(C3)C1)C2 | > 200 µM | 24 µM | –
O=C(c1ccc(Cl)cc1)C1N=NCC1c1ccccc1 (centres undefined) | > 200 µM | 75.9 µM | –
O=[N+]([O-])C1=C(c2ccccc2)SC(Br)=C(c2ccccc2)S1 | > 100 µM | 0.813 µM | –
COc1ccc(/C=N/n2c(C)nc3c(sc(=S)n3-c3ccccc3)c2=O)cc1 | > 12.6 µM | > 12.6 µM | –
O=C(O)Cc1ccccc1 | > 200 µM | > 200 µM | –
CCOC(=O)C1=C(N)SCCC1 | > 1320 µM | 257 µM | –
CC1(C)CC(=O)C2=C(C1)OC1=C(CC(C)(C)CC1=O)C2c1ccccc1[N+](=O)[O-] (centres undefined) | > 200 µM | > 200 µM | –
CCN=C1Nc2ccccc2-n2c(nn3nc4ccccc4c23)N1CC | 5.37 µM | > 200 µM | –
O=C(Nc1cccc([N+](=O)[O-])c1)c1n[nH]n(-c2cccc([N+](=O)[O-])c2)c1=O | > 200 µM | > 200 µM | –
Cc1cccc(C(C)C)c1NC(=O)CC1C(=O)Nc2ccccc2S1(=O)=O (centres undefined) | > 7.08 µM | > 7.08 µM | –
CC(=O)OCCCCn1cnc2nc(Nc3ccccc3)nc(Cl)c21 | > 200 µM | 135 µM | –
CCc1cccc(C(C)CC)c1NC(=O)CC1C(=O)Nc2ccccc2S1=O (centres undefined) | > 46.8 µM | > 46.8 µM | –
O=C1c2cc(Cl)ccc2-n2cnnc2C2CSCN12 (centres undefined) | > 200 µM | > 200 µM | –
BrC1CCCCCC(Br)C12OCCO2 (centres undefined) | > 57.5 µM | > 57.5 µM | –
Cc1ccc(C=Nc2ccc(SSc3ccc(N=Cc4ccc(C)cc4)cc3)cc2)cc1 | > 200 µM | 26.3 µM | –
c1csc(-c2csc(-c3ccsc3)c2)c1 | > 200 µM | > 200 µM | –
O=C(CC1(O)C(=O)Nc2ccc(Br)cc21)c1ccc2c(c1)OCO2 (centres undefined) | > 200 µM | 178 µM | –
c1ccc(NNCC[P+](c2ccccc2)(c2ccccc2)c2ccccc2)cc1 | > 200 µM | 2.88 µM | –
CNC(=O)O/N=C(\C(=N\OC(=O)NC)c1ccccc1)c1ccccc1 | – | – | inactive
COC(=O)CCCN(C)c1n[nH]c(N)n1 | > 200 µM | > 200 µM | –
C[S+](C)c1ccccc1NC(C)(C)C | > 776 µM | 490 µM | –

Structure (SMILES) | EC50 | IC50 | outcome
CN1CCN(CC(=O)Nc2cccc3ccccc23)CC1 | > 200 µM | > 200 µM | –
CC1OC(OC2C(OC(=O)[C@]34CCC(C)(C)CC3C3=CCC5[C@@]6(C)C[C@H](O)[C@H](OC7OC(CO)C(O)C(O)C7N)[C@@](C)(C(=O)O)C6CC[C@@]5(C)C3(C)CC4)OCC(O)C2O)C(O)C(O)C1OC1OCC(O)C(O)C1O (some centres undefined) | > 123 µM | > 123 µM | –
O=P1(c2ccccc2)Nc2cc(Cl)c(Cl)cc2N1 | > 200 µM | 64.6 µM | –
O=C(/C=C(\Nc1ccccc1O)c1ccccc1)C(=O)NC12CC3CC(CC(C3)C1)C2 | > 200 µM | > 200 µM | –
O=[N+]([O-])C(=C(N1CCCCC1)N1CCCCC1)/C(Cl)=C(\Cl)Br | > 200 µM | 1.29 µM | –
CC1=NN(C(=O)CC(=O)Nc2ccccc2)C(=O)C1N=Nc1ccc(S(N)(=O)=O)cc1 (centres undefined) | > 151 µM | 75.9 µM | –
Oc1ccccc1CNCc1nc2ccccc2[nH]1 | > 200 µM | 74.1 µM | –
C=C(C)[C@@H]1CC[C@]2(CNC(=O)CC3(CC(=O)O)CCCC3)CC[C@]3(C)[C@H](CC[C@@H]4[C@@]5(C)CC[C@H](NC(=O)CC6(CC(=O)O)CCCC6)C(C)(C)[C@@H]5CC[C@]43C)[C@@H]12 | > 200 µM | 13.5 µM | –
COc1ccc(C(=O)Nc2ccc(S(=O)(=O)NCC(=O)O)cc2)cc1 | – | – | inactive
CCOC(=O)C(C)NC(=O)NC12CC3CC(CC(F)(C3)C1)C2 (centres undefined) | > 219 µM | > 200 µM | –
COC(=O)CCCC=C(c1cc(C)c(OC)c(Br)c1)c1cc(C)c(OC)c(Br)c1 | > 200 µM | 39.8 µM | –
CC(=O)C(CN(C(C)C)C(C)C)C(c1ccccc1)c1c(O)c2ccccc2oc1=O (centres undefined) | > 85.1 µM | 75.9 µM | –
O=c1c2c(F)c(F)c(F)c(F)c2sc2nccn12 | > 200 µM | 3.89 µM | –
CCCCCCCCCCCCCC(=O)NCC(=O)NC(CO)C(=O)NC(CO)C(=O)NC(CCCCN)C(=O)NC(CO)C(=O)NC(CCCCN)C(=O)N1CCCC1C(=O)NC(CCCCN)C(=O)NC(CC(=O)O)C(N)=O (centres undefined) (Myristoyl-GSSKSKPKD-NH2; configuration not given here) | > 219 µM | > 219 µM | –
COC1=CC(=O)c2nccc(C)c2C1=O | – | – | inactive
S=P(c1ccccc1)(N1CCCCC1)N1CCCCC1 | > 43.7 µM | > 43.7 µM | –
CN(N=O)C(=O)N(N)CCCCC(NC(=O)OCc1ccccc1)C(=O)OCc1ccccc1 (centres undefined) | > 39.8 µM | > 39.8 µM | –
O=c1c2ccccc2oc2cc3c(c(O)c12)CCCC3 | > 200 µM | > 200 µM | –
COC(=O)c1ccccc1C1CN=NC12Cc1cc(C)cc(C)c1C2=O (centres undefined) | – | – | inactive
CCOC(=O)/C(=C\c1ccc(N(CCC#N)CCC#N)cc1)NC(=O)c1cc([N+](=O)[O-])ccc1Cl | > 10.5 µM | > 10.5 µM | –
O=C(CC(=O)c1cccc2ccccc12)C(=O)NC1C2CC3CC(C2)CC1C3 (centres undefined) | – | – | inactive
C=CC1=CC(C)C[C@]1(O)C(=O)OC (some centres undefined) | > 1380 µM | 708 µM | –

Structure (SMILES) | EC50 | IC50 | outcome
NC1CCC2(O)c3ccccc3C2C1 (centres undefined) | > 200 µM | > 200 µM | –
O=c1c2ccccc2[nH]c(=S)n1-c1ccc(Cl)cc1 | > 200 µM | > 200 µM | –
C=C1[C@@H]2O[C@@H]3CC(=O)[C@@H](O)[C@]2(C(=O)N1OC)[C@H]3/C=C/C | > 115 µM | > 115 µM | –
CCOC1(OCC)C([N+](=O)[O-])=CC(=[N+]([O-])O)C=C1[N+](=O)[O-] | > 724 µM | 204 µM | –
O=C1C2=C(CC3=C(C2)CS(=O)(=O)C3)C(=O)C2=C1CC1=C(C2)CS(=O)(=O)C1 | > 200 µM | 6.03 µM | –
O=S(=O)(SC(S(=O)(=O)c1ccccc1)S(=O)(=O)c1ccccc1)c1ccccc1 | > 537 µM | 355 µM | –
CC(C)(CN1CCCCC1)C(=O)/C=C/c1ccc(Br)cc1 | > 129 µM | 1.7 µM | –
CN1Cc2cc(O)c(O)cc2C(O)C1 (centres undefined) | > 200 µM | 102 µM | –
O=c1oc2c3ccc4ccccc4c3n(CCN3CCCCC3)c2c2ccccc12 | > 8.71 µM | 6.76 µM | –
COc1cc2c(cc1-c1coc3cc(OCC=C(C)C)ccc3c1=O)OCO2 | > 200 µM | 7.08 µM | –
Nc1n[nH]c(N)n1 | > 2510 µM | > 200 µM and 282 µM | –
N/C(=N\N=C\c1ccc2c(c1)OCO2)N/N=C\c1ccc2c(c1)OCO2 | > 200 µM | – | –
NC(=O)CNC(=O)c1ccccc1SC(=O)OCCBr | 7.08 µM | > 200 µM | –
COc1ccc(OC)c(/C=C/NC=O)c1 | > 200 µM | > 200 µM | –
Cc1cc2c(C(C)C)c(O)c(O)c(C=O)c2c(O)c1-c1c(C)cc2c(C(C)C)c(O)c(O)c(C=Nc3ccc(Cc4ccc(N)cc4)cc3)c2c1O | 5.5 µM | 44.7 µM | –
COC1/C=C/OC2(C)Oc3c(C)c(O)c4c(O)c(c(/C=N/n5cnc6c(ncn6C6OC(CO)C(O)C6O)c5=O)c(O)c4c3C2=O)NC(=O)/C(C)=C\C=C\C(C)C(O)C(C)C(O)C(C)C(OC(C)=O)C1C (centres undefined) | > 200 µM | 66.1 µM | –
CCOP(=O)(OCC)/C(=C/c1ccccc1)CC(C)=O | > 200 µM | 148 µM | –
c1ccc2[nH]c(-c3nc4ccccc4s3)nc2c1 | > 15.1 µM | 5.37 µM | –
Cc1cc(N(CCC#N)CCC#N)ccc1/C(N=Nc1cccc(Cl)c1)=N/NC(=O)c1cc(Cl)ccc1O | > 200 µM | 11.7 µM | –
CCCCCc1cc2cc(O)cc(Oc3c(O)cc(O)c(C(=O)O)c3CCCCC)c2c(=O)o1 | > 200 µM | 34.7 µM | –
N#C/C1=C(\C#N)N=Cc2ccccc2NCCNc2ccccc2C=N1 | > 200 µM | > 200 µM | –
CCOC(=O)Cc1cc(=O)[nH]c(-n2[nH]c(C)c(CCO)c2=O)n1 | > 200 µM | > 200 µM | –

Structure (SMILES) | EC50 | IC50 | outcome
Cc1cccc2c1C(=O)OC2(c1cccc2ccccc12)c1cccc2ccccc12 | – | – | inactive
O=C1CC2c3c(OCc4ccccc4)cc(OCc4ccccc4)cc3OC2O1 (centres undefined) | > 25.7 µM | > 25.7 µM | –
CC1(C)OC2C=C(COCc3ccccc3)C[C@H]3[C@@H]2C(O1)[C@@H]1OC[C@H]3O1 (some centres undefined) | – | – | inactive
CC(=O)/C(=C/c1ccccc1Br)C(=O)c1ccccc1 | > 57.5 µM | 22.4 µM | –
Cc1cccc(C(C)(C)C)c1NC(=O)CCc1nc(=S)[nH][nH]1 | > 562 µM | 240 µM | –
CN(C)C(C1=C(O)C(c2ccccc2)N(c2ccccc2)C1=O)N1CCOCC1 (centres undefined) | – | – | inactive
Nc1ccc(C(=O)N2CCC[C@H]2CO)c(N)c1 | > 200 µM | > 200 µM | –
O=C1NC(=O)C(C(=O)C(=O)Nc2cccc(C(F)(F)F)c2)C(=O)N1 | > 39.8 µM | > 39.8 µM | –
C/C(=C(/C)c1ccc(O)cc1)c1ccc(O)cc1 | > 200 µM | 52.5 µM | –
Cc1cc(N(CCC#N)CCC#N)ccc1N=Nc1ccc(C(=O)O)cc1 | > 100 µM | > 100 µM | –
S=c1sc(-c2ccc(Cl)cc2)nn1CSc1nc2ccccc2o1 | > 200 µM | > 200 µM | –
N#C/C(=C(\c1ccccc1)c1ccccn1)c1ccccc1 | > 20 µM | 1.1 µM | –
CCOC(=O)NC(=O)c1cn(CCSCCOC(=O)NCCCCCCNC(=O)OCCSCCn2cc(C(=O)NC(=O)OCC)c(=O)[nH]c2=O)c(=O)[nH]c1=O | – | – | inactive
Cc1ccc(C(=O)c2c(C)cccc2C(=O)O)c(C)c1 | > 200 µM | > 200 µM | –
CCOP(=O)(C=C=C1CCC2[C@@H]3CCc4cc(OC)ccc4C3CC[C@]12C)OCC (some centres undefined) | > 200 µM | 2.09 µM | –
COc1ccccc1-n1cnc2c1NC(C)(C)N=C2C(N)=O | > 200 µM | > 200 µM | –
CCOC(=O)C(O)(NC(=O)c1ccccc1F)C(F)(F)F (centres undefined) | – | – | inactive
Cc1cn([C@H]2CN(O)C[C@@H](CO)O2)c(=O)[nH]c1=O | > 200 µM | > 200 µM | –
CON(C)C(=O)C(Cc1ccccc1)NC(=O)OCc1ccccc1 (centres undefined) | > 200 µM | 182 µM | –
